Source: patent publication US20160376286A1, “Pyrimidin-4-one derivatives and their use in the tratement, amelioration or prevention of a viral disease” (priority 2011, published 2016)

Tests used:
[1] = target: PB2 cap binding domain (CBD) of an avian H5N1 influenza virus (Influenza A virus, UniProt Q9Q0V1); test: biochemical
[2] = test system: influenza A virus A/Aichi/2/68 (H3N2); test: Cytopathic effect (CPE) assay H3N2 in MDCK cells; type: cell-based, influenza A virus (A/Aichi/2/68 (H3N2)); MDCK cells
Protocol: A possible measure of the […] antiviral activity of the compounds having the formula I or II is the CPE assay disclosed herein. […] In this connection, the reduction in the virus-mediated cytopathic effect (CPE) upon treatment with the compounds was calculated as follows: The cell viability of infected-treated and uninfected-treated cells was determined using an ATP-based cell viability assay (Promega). The response in relative luminescent units (RLU) of infected-untreated samples was subtracted from the response (RLU) of the infected-treated samples and then normalized to the viability of the corresponding uninfected sample resulting in % CPE reduction.
The influenza A virus (IAV) was obtained from American Tissue Culture Collection (A/Aichi/2/68 (H3N2); VR-547). Virus stocks were prepared by propagation of virus on Mardin-Darby canine kidney (MDCK; ATCC CCL-34) cells and infectious titres of virus stocks were determined by the 50% tissue culture infective dose (TCID50) analysis as described in Reed, L. J., and H. Muench. 1938, Am. J. Hyg. 27:493-497.
MDCK cells were seeded in 96-well plates at 2×10^4 cells/well using DMEM/Ham's F-12 (1:1) medium containing 10% foetal bovine serum (FBS), 2 mM L-glutamine and 1% antibiotics (all from PAA). Until infection the cells were incubated for 5 hrs at 37° C., 5.0% CO2 to form a -80% confluent monolayer on the bottom of the well. Each test compound was dissolved in DMSO and generally tested at 25 μM and 250 μM. In those cases where the compounds were not soluble at that concentration they were tested at the highest soluble concentration. The compounds were diluted in infection medium (DMEM/Ham's F-12 (1:1) containing 5 μg/ml trypsin, and 1% antibiotics) for a final plate well DMSO concentration of 1%. The virus stock was diluted in infection medium (DMEM/Ham's F-12 (1:1) containing 5 μg/m1Trypsin, 1% DMSO, and 1% antibiotics) to a theoretical multiplicity of infection (M01) of 0.05.
After removal of the culture medium and one washing step with PBS, virus and compound were added together to the cells. In the wells used for cytotoxicity determination (i.e. in the absence of viral infection), no virus suspension was added. Instead, infection medium was added. Each treatment was conducted in two replicates. After incubation at 37° C., 5% CO2 for 48 hrs, each well was observed microscopically for apparent cytotoxicity, precipitate formation, or other notable abnormalities. Then, cell viability was determined using
CellTiter-Glo luminescent cell viability assay (Promega). The supernatant was removed carefully and 65 μl of the reconstituted reagent were added to each well and incubated with gentle shaking for 15 min at room temperature. Then, 60 μl of the solution was transferred to an opaque plate and luminescence (RLU) was measured using Synergy HT plate reader (Biotek).
Relative cell viability values of uninfected-treated versus uninfected-untreated cells were used to evaluate cytotoxicity of the compounds. Substances with a relative viability below 80% at the tested concentration were regarded as cytotoxic and retested at lower concentrations.
Reduction in the virus-mediated cytopathic effect (CPE) upon treatment with the compounds was calculated as follows: The response (RLU) of infected-untreated samples was subtracted from the response (RLU) of the infected-treated samples and then normalized to the viability of the corresponding uninfected sample resulting in % CPE reduction.

Sequence of PB2 cap binding domain (CBD) of an avian H5N1 influenza virus (Q9Q0V1 318-483 limits assumed): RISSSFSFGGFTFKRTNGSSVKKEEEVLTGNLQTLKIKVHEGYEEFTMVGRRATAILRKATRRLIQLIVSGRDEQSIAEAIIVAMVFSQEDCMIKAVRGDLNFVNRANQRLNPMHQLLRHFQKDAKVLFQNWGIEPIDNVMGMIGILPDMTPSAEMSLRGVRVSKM

Question: With `O=C(NO)c1cc(NS(=O)(=O)Cc2ccccc2)ccn1` as the compound, how does the melting point read?
Answer: 187 to 192 °C

Question: With `Cc1c(-c2cnn(C)c2)sc2nc(N)[nH]c(=O)c12` as the compound, how does the melting point read?
Answer: 335 to 345 °C

Question: For `CCONC(=O)c1ccc(-c2cccc(CN(C)CCCc3ccccc3)c2)cn1.Cl` (hydrate or solvate), which melting point is on record?
Answer: 50 to 55 °C

Question: With `Cc1c(-c2cccc(Cl)c2)sc2nc(N)[nH]c(=O)c12` [SAV-7580] as the compound, how does the “Biacore Binding (RU)” value [1] read?
Answer: 21.2 89.8 11 8.9 RU

Question: Which “Biacore Binding (RU)” value [1] does the source give for `Cc1c(-c2ccccc2)sc2nc(NCCN(C)C)[nH]c(=O)c12` [SAV-7583] here?
Answer: 77.8 4.8 66 RU

Question: What about the Kd [1] of the same compound?
Answer: 66 µM

Question: What does the source list for `Cc1c(-c2ccccc2Cl)sc2nc(N)[nH]c(=O)c12` [SAV-7596]?
Answer: Biacore Binding (RU) [1]: 11 29.6 13.6 RU; Kd [1]: 11 µM

Question: For `Cc1c(-c2cnn(C)c2)sc2nc(N)[nH]c(=O)c12` [SAV-7603], which Kd [1] is on record?
Answer: 4.2 µM

Question: Which Kd [1] does the source give for `Cc1c(-c2cccc(F)c2)sc2nc(N)[nH]c(=O)c12` [SAV-7606] here?
Answer: 6 µM

Question: Which “CPE H3N2 reduction (%)” value ([2]; activity conc 5) does the source give for `Cc1c(-c2ccc(Cl)c(C(F)(F)F)c2)sc2nc(N)[nH]c(=O)c12` [SAV-7623] here?
Answer: 1.9%

Question: Which “CPE H3N2 reduction (%)” value ([2]; activity conc 25) does the source give for `Cc1c(-c2ccc(Cl)c(C(=O)N(C)C)c2)sc2nc(N)[nH]c(=O)c12` [SAV-7626] here?
Answer: 6.4 −4.6%

Question: Which “CPE H3N2 reduction (%)” value ([2]; activity conc 50 (μM)) does the source give for `Cc1c(-c2cccc(C#N)c2F)sc2nc(N)[nH]c(=O)c12` [SAV-7627] here?
Answer: 71.2%

Question: Which “CPE H3N2 reduction (%)” value ([2]; activity conc 50 (μM)) does the source give for `Cc1c(-c2ccc(F)c(C#N)c2F)sc2nc(N)[nH]c(=O)c12` [SAV-7628] here?
Answer: 84.3%

Question: With `Cc1c(-c2cccc(CN(C)C)c2)sc2nc(N)[nH]c(=O)c12` [SAV-7629] as the compound, how does the “CPE H3N2 reduction (%)” value ([2]; activity conc 50 (μM)) read?
Answer: 38.3%

Question: With `Nc1nc2sc(-c3ccccc3)c(Br)c2c(=O)[nH]1` [SAV-7631] as the compound, how does the Kd [1] read?
Answer: 0.86 µM

Question: With `Cc1c(-c2ccc(Cl)nc2)sc2nc(N)[nH]c(=O)c12` [SAV-7632] as the compound, how does the “CPE H3N2 reduction (%)” value ([2]; activity conc 50 (μM)) read?
Answer: 0.75 53%

Question: Which “CPE H3N2 reduction (%)” value ([2]; activity conc 50 (μM)) does the source give for `Cc1c(-c2ccnc(Cl)c2F)sc2nc(N)[nH]c(=O)c12` [SAV-7633] here?
Answer: 63.1%

Question: For `Cc1c(-c2c(F)ccc(Cl)c2F)sc2nc(N)[nH]c(=O)c12` [SAV-7637], which “CPE H3N2 reduction (%)” value ([2]; activity conc 5) is on record?
Answer: 1.5%

Question: With `Cc1c(-c2ccccc2)sc2nc(Nc3ccccc3)[nH]c(=O)c12` [SAV-7638] as the compound, how does the “CPE H3N2 reduction (%)” value ([2]; activity conc 5) read?
Answer: 8.7%

Question: With `Cc1c(-c2ccccc2)sc2nc(NC3CCCCC3)[nH]c(=O)c12` [SAV-7640] as the compound, how does the “CPE H3N2 reduction (%)” value ([2]; activity conc 5) read?
Answer: −3.2%

Question: Which “CPE H3N2 reduction (%)” value ([2]; activity conc 50 (μM)) does the source give for `O=C(NO)c1cc(NS(=O)(=O)Cc2ccccc2)ccn1` [drawing 243] here?
Answer: 5.1%
